The values below come from patent US9962405B2, “Antiviral gel combination” (YEDITEPE UNIVERSITESI, priority 2013, dated 2018).

One data set deals with Vero cells. As to conditions: chlorhexidine at 0.002%; known from reference [12]; cited from earlier work.
The test system of data set [1] is Herpes Simplex Type 1 virus. The data set is described as follows: Antiviral activity on HSV type 1 in Vero cells, cell viability by MTS, viral inhibition calculated. It is filed as cell-based. The note with it: tested at 0.0005, 0.001 and 0.002%, HSV-1 dilutions 10^-2 to 10^-5. The method, then:
Vero cells and Herpes Simplex Type 1 virus were used in order to observe the activity of the antiviral gel formulation; which is composed of a mixture of sodium pentaborate pentahydrate chlorhexidine and poloxamer; on Herpes Simplex Type 1 virus. Virus stock dilutions were prepared and used for the analysis. Five different concentrations were prepared from the main stock up to 10^−5 concentration and among these concentrations, the dilution of 10^−1 concentration was cancelled since no viable cell was observed. The other antiviral analyses were made at four different concentration values ranging from 10^−2 to 10^−5. Chlorhexidine was applied at three different concentrations: 0.0005-0.001-0.002%.

Another data set relates to HSV-1 virus. As to conditions: in vitro, vero cells; cited from earlier work.
A further data set deals with Herpes simplex virus. The note with it: topically applied on infected skin, animal studies; cited from earlier work.

The structures appear in SMILES notation.

With `[H]/N=C(\N/C(=N/[H])NCCCCCCNC(=N)NC(=N)Nc1ccc(Cl)cc1)Nc1ccc(Cl)cc1` [chlorhexidine], in the data set on Vero cells, the cytotoxic effect result was “cytotoxic effect”. Further, the “concentration of chlorhexidine alone at which the best antiviral activity was observed” value in data set [1] is 0.002%. For the same compound, the “inhibition of viral replication of HSV-1” value in the data set with HSV-1 virus is “inhibits viral replication”. The “inhibition of virus proliferation and lesion formation” value in the data set on Herpes simplex virus is “inhibits the virus from proliferating and forming lesions”.
